Among the data in patent US9132130B2, “Purine derivative and antitumor agent using same” (ZENYAKU KOGYO KABUSHIKI KAISHA, priority 2009, dated 2015) are GI50 values, retold here.

Common to all, as to assay type: cell-based
Assay [1] relates to B16F10 cells (mouse melanoma [malignant melanoma] cells). The assay can be described thus: in vitro antitumor activity test, B16F10 cells, XTT colorimetry. The conditions noted are these: B16-F10, cultured 72 hours. As for the experimental part: (§1) WiDr cells (human colon cancer cells) subcultured in a culture medium composed of a MEM medium added with 10% fetal bovine serum, 25 mM HEPES and 0.1 mg/ml kanamycin under the conditions of 37° C. and 5% carbon dioxide gas were made into single floating cells by treating with trypsin/EDTA, and a single cell suspension of 3×10^4 cells per 1 ml was prepared using the MEM medium (added with 10% fetal bovine serum, 25 mM HEPES and 0.1 mg/ml kanamycin). After dissolving the test compounds in DMSO, they were diluted in a RPMI 1640 medium (added with 10% fetal bovine serum, 25 mM HEPES and 0.1 mg/ml kanamycin) and prepared so that the concentrations were 2.0×10^−9 to 2.0×10^−4 M.
(§2) 0.1 ml of the cell suspension was placed into each well of 96-well microplates, cultured for 24 hours to allow the cells to adhere to the microplates, then 0.1 ml of the sample solutions were added, and cultured for 72 hours at 37° C. in 5% carbon dioxide gas.
(§3) Afterwards, the level of growth inhibition at various sample concentrations was obtained using XTT colorimetry, and concentrations at which growth was inhibited by 50% (GI50 values [μM]) were calculated.
(§4) In addition, cells other than WiDr cells that were used, and the condition for preparing each single cell suspension were as follows.
B16F10 cells (mouse melanoma [malignant melanoma] cells): 1×10^4 cells/ml

The subject of assay [2] is PC-3 cells (human prostate cancer cells). The experiment in a line: in vitro antitumor activity test, PC-3 cells, XTT colorimetry. Conditions: PC-3 human prostate cancer cells, cultured 72 hours. As for the experimental part:
as §1, §2, §3, §4
PC-3 cells (human prostate cancer cells): 2×10^4 cells/ml
Background: Tetrazolium assays rely on reduction of a dye to a coloured formazan, in cell work by metabolically active cells.

Assay [3] deals with WiDr cells (human colon cancer cells). The experiment in a line: in vitro antitumor activity test, WiDr cells, XTT colorimetry. Conditions: cultured 72 hours. As for the experimental part:
as §1, §2, §3

The subject of assay [4] is A549 cells (human lung cancer cells). The experiment in a line: in vitro antitumor activity test, A549 cells, XTT colorimetry. Conditions: cultured 72 hours. As to the method:
as §1, §2, §3, §4
A549 cells (human lung cancer cells): 2×10^4 cells/ml

Assay [5] deals with P388 cells (mouse leukemia cells). The assay can be described thus: in vitro antitumor activity test, P388 cells, XTT colorimetry. The conditions noted are these: cultured 72 hours. As for the experimental part: P388 cells (mouse leukemia cells) passaged in the abdominal cavity of DBA/2 mice were extracted with ascitic fluid, and cultured in a RPMI 1640 medium (added with 10% fetal bovine serum, 25 mM HEPES, 0.1 mg/ml kanamycin and 5 μM 2-hydroxyethyldisulfide) at 37° C. in 5% carbon dioxide gas. After culturing for 16 hours, floating P388 cells were made into a single cell suspension of 4×10^4 cells per 1 ml using the same RPMI 1640 medium as given above. The test substances were dissolved in DMSO, then diluted in a RPMI 1640 medium (added with 10% fetal bovine serum, 25 mM HEPES and 0.1 mg/ml kanamycin) and prepared so that the concentrations were 2.0×10^−9 to 2.0×10^−4 M.
0.1 ml of the cell suspension was placed into each well of 96-well microplates, then 0.1 ml of the sample solutions were added, and cultured for 72 hours at 37° C. in 5% carbon dioxide gas.
as §3

Where a name gives a salt, the structure may show the parent alone. A value given as a limit tells only on which side of the number the result lay.

What is called GI50 is the concentration at which growth is held to half of that of the control. The low end stands for greater sensitivity of the cells, the high end for lower sensitivity of the cells. Turning to `CCc1nc2c(N3CCOCC3)nc(SCc3ccc(OC)c(NC(=O)CN)c3)nc2n1C` [Compound 28, 2-[3-(2-aminoacetylamino)-4-methoxybenzylsulfanyl]-8-ethyl-9-methyl-6-morpholino-9H-purine hydrochloride], the GI50 in assay [1] stood at 1140 nM; in assay [2] it was 990 nM; in assay [3] it was 1200 nM; in assay [4], 900 nM; in assay [5], 810 nM.
As to `CNc1nc(SCc2ccc(OC)c(N)c2)nc2c1ncn2C` [Compound 45, 2-(3-amino-4-methoxybenzylsulfanyl)-9-methyl-6-methylamino-9H-purine], the GI50 in assay [1] came to 280 nM; in assay [2] it was 150 nM; in assay [3] it was 830 nM; in assay [4] it was 120 nM; in assay [5] it was 90 nM.
Consider `CCc1nc2c(N3CCOCC3)nc(SCc3ccc(I)cc3)nc2n1C` [Compound 49, 8-ethyl-2-(4-iodobenzylsulfanyl)-9-methyl-6-morpholino-9H-purine], for which the GI50 amounted to 1340 nM in assay [1]; 460 nM in assay [2]; 390 nM in assay [3]; 320 nM in assay [4]; 290 nM in assay [5].
Take `CCc1nc2c(N3CCOCC3)nc(SCCCc3ccc(OC)cc3)nc2n1C` [Compound 50, 8-ethyl-2-[3-(4-methoxyphenyl)propylsulfanyl]-9-methyl-6-morpholino-9H-purine]: the GI50 was 1430 nM in assay [1]; 620 nM in assay [2]; 1020 nM in assay [3]; 890 nM in assay [4]; 380 nM in assay [5].
In the case of `CCc1nc2c(N3CCOCC3)nc(SCc3ccc(OC)c(C#N)c3)nc2n1C` [Compound 51, 2-(3-cyano-4-methoxybenzylsulfanyl)-8-ethyl-9-methyl-6-morpholino-9H-purine], the GI50 in assay [1] was 380 nM; in assay [2], 100 nM; in assay [3] it was 140 nM; in assay [4], 100 nM; in assay [5], 70 nM.
`CCc1nc2c(N3CCOCC3)nc(SCc3ccc(OC)c(NC(=O)c4ccco4)c3)nc2n1C` [Compound 55, 8-ethyl-2-[3-(2-furylcarbonylamino)-4-methoxybenzylsulfanyl]-9-methyl-6-morpholino-9H-purine]: the GI50 in assay [1] stood at 1390 nM; in assay [2], 780 nM; in assay [3] it was 1390 nM; in assay [4], 1340 nM; in assay [5] it was 1050 nM.
Regarding `CCc1nc2c(N(C)C)nc(SCc3ccc(OC)c(NC(C)=O)c3)nc2n1C` [Compound 60, 2-(3-acetylamino-4-methoxybenzylsulfanyl)-6-dimethylamino-8-ethyl-9-methyl-9H-purine], the GI50 in assay [1] is 1000 nM; in assay [2], 870 nM; in assay [3], 1300 nM; in assay [4] it was 1400 nM; in assay [5], 610 nM.
On the same counts, the results for `COc1ccc(CSc2nc(N(C)C(C)=O)c3ncn(C)c3n2)cc1` [Compound 61, 6-(N-acetyl-N-methylamino)-2-(4-methoxybenzylsulfanyl)-9-methyl-9H-purine] are 840 nM, 890 nM, 460 nM, 520 nM and 330 nM.
In the case of `CCc1nc2c(N3CCOCC3)nc(SCc3ccc(OC)c(NC(=O)COC)c3)nc2n1C` [Compound 63, 8-ethyl-2-(3-methoxyacetylamino-4-methoxybenzylsulfanyl)-9-methyl-6-morpholino-9H-purine], the GI50 amounted to 1900 nM in assay [1]; 870 nM in assay [2]; 3300 nM in assay [3]; 1600 nM in assay [4]; 1500 nM in assay [5].
Regarding `CCNc1nc(SCc2ccc(OC)cc2)nc2c1ncn2C` [Compound 64, 6-ethylamino-2-(4-methoxybenzylsulfanyl)-9-methyl-9H-purine], the GI50 worked out at 380 nM in assay [1]; 450 nM in assay [2]; 310 nM in assay [3]; 480 nM in assay [4]; 380 nM in assay [5].
Turning to `CCc1nc2c(N(C)C)nc(SCc3ccc(OC)c(C#N)c3)nc2n1C` [Compound 69, 2-(3-cyano-4-methoxybenzylsulfanyl)-6-dimethylamino-8-ethyl-9-methyl-9H-purine], the GI50 in assay [1] was 200 nM; in assay [2], 120 nM; in assay [3] it was 150 nM; in assay [4], 150 nM; in assay [5], 110 nM.
Turning to `CCc1nc2c(N(C)C)nc(SCc3ccc(OC)c(F)c3)nc2n1C` [Compound 71, 6-dimethylamino-8-ethyl-2-(3-fluoro-4-methoxybenzylsulfanyl)-9-methyl-9H-purine], the GI50 in assay [1] is 110 nM; in assay [2], 50 nM; in assay [3], 80 nM; in assay [4], 100 nM; in assay [5], 80 nM.
For `CNc1nc(SCc2ccc(OC)c(C#N)c2)nc2c1ncn2C` [Compound 72, 2-(3-cyano-4-methoxybenzylsulfanyl)-6-methylamino-9-methyl-9H-purine], the GI50 in assay [1], in assay [2], in assay [3], in assay [4] and in assay [5] was < 40 nM in each case.
As to `CNc1nc(SCc2ccc(OC)c(F)c2)nc2c1ncn2C` [Compound 73, 2-(3-fluoro-4-methoxybenzylsulfanyl)-6-methylamino-9-methyl-9H-purine], the GI50 in assay [1], in assay [2], in assay [3], in assay [4] and in assay [5] was < 40 nM throughout.
Turning to `CCN(C)c1nc(SCc2ccc(OC)cc2)nc2c1ncn2C` [Compound 75, 6-(N-ethyl-N-methylamino)-2-(4-methoxybenzylsulfanyl)-9-methyl-9H-purine], the concentration for 50% growth inhibition (GI50) in assay [1] stood at 380 nM; in assay [2], 560 nM; in assay [3] it was 380 nM; in assay [4], 520 nM; in assay [5] it was 380 nM.
As to `CCc1nc2c(N3CCOCC3)nc(SCc3ccc(OC)c(Br)c3)nc2n1C` [Compound 78, 2-(3-bromo-4-methoxybenzylsulfanyl)-8-ethyl-9-methyl-6-morpholino-9H-purine], the GI50 is 1200 nM in assay [1]; 360 nM in assay [2]; 1100 nM in assay [3]; 1100 nM in assay [4]; 910 nM in assay [5].
Take `C=Cc1cc(CSc2nc(N3CCOCC3)c3nc(CC)n(C)c3n2)ccc1OC` [Compound 79, 8-ethyl-2-(4-methoxy-3-vinylbenzylsulfanyl)-9-methyl-6-morpholino-9H-purine]: the GI50 was 1500 nM in assay [1]; 440 nM in assay [2]; 1300 nM in assay [3]; 1400 nM in assay [4]; 1000 nM in assay [5].
Turning to `COc1ccc(CSc2nc(N3CCOCC3)c3ncn(C)c3n2)cc1C#N` [Compound 80, 2-(3-cyano-4-methoxybenzylsulfanyl)-9-methyl-6-morpholino-9H-purine], the GI50 in assay [1] amounted to 210 nM; in assay [2] it was 70 nM; in assay [3] it was 160 nM; in assay [4] it was 140 nM; in assay [5], 70 nM.
`CCN(C)c1nc(SCc2ccc(OC)c(F)c2)nc2c1ncn2C` [Compound 82, 6-(N-ethyl-N-methylamino)-2-(3-fluoro-4-methoxybenzylsulfanyl)-9-methyl-9H-purine]: the GI50 in assay [1] is 300 nM; in assay [2], 300 nM; in assay [3], 210 nM; in assay [4] it was 140 nM; in assay [5], 110 nM.
For the compound `COc1ccc(CSc2nc(N3CCOCC3)c3ncn(C)c3n2)cc1F` [Compound 83, 2-(3-fluoro-4-methoxybenzylsulfanyl)-9-methyl-6-morpholino-9H-purine], the GI50 was 180 nM in assay [1]; 180 nM in assay [2]; 140 nM in assay [3]; 150 nM in assay [4]; 90 nM in assay [5].
As to `CCN(C)c1nc(SCc2ccc(OC)c(N)c2)nc2c1ncn2C` [Compound 84, 2-(3-amino-4-methoxybenzylsulfanyl)-6-(N-ethyl-N-methylamino)-9-methyl-9H-purine], the GI50 in assay [1] was determined as 510 nM; in assay [2] it was 980 nM; in assay [3] it was 1900 nM; in assay [4], 550 nM; in assay [5], 260 nM.
